From patent publication US20250163068A1, “COMPOUNDS AND THEIR METHODS OF USE” (Praxis Precision Medicines, Inc., priority 2016, published 2025)
Read-outs that look alike come from different tables or passages of the source.

Tests used:
CYP1A2 = CYP1A2 (Homo sapiens (Human), UniProt P05177); experiment: CYP1A2 inhibition in human liver microsomes; type: in vitro ADME
Method: The specific marker metabolites are measured with LC/MS/MS. The remaining enzymatic activities and inhibitory potency IC50 are determined. Microsomes are removed out of the −80° C. freezer to thaw on ice and 20 μL of the substrates solution added to the corresponding wells. […] Then 158 μL of the HLM working solution was added to all wells of the incubation plate. The plate was pre-warmed for about 10 min using a 37° C. water bath. Then 20 μL of the NADPH cofactor solution was added to all incubation wells, mixed and incubated for 10 minutes at 37° C. water bath. The reaction is terminated by adding 400 μL cold stop solution (200 ng/mL Tolbutamide and 200 ng/mL Labetalol in ACN). […] Finally 200 μL of the supernatant was transferred to 100 μL HPLC water, shaken for 10 min and analyzed by LC/MS/MS.

[1] = PK rat clearance experiment; conditions: male Sprague-Dawley rats, single intravenous bolus 0.5 mg/kg, plasma
Method: (§1) The IV dosing solution was prepared freshly on the dosing day. Test article (0.5 mg/kg) was prepared in a vehicle, for example, consisting of 5% DMSO/5% solutol/90% water. The concentrations of test article in all dosing solutions were determined by HPLC/UV. Three male Sprague-Dawley rats were used in this study. The animals were confirmed healthy before being assigned to the study. Each animal was given a unique identification number which was marked on the tail or the ear, and written on the cage card. All animals were fasted overnight before dosing and the food was returned at 4 hours post dosing. Water was provided to all animals ad libitum during the fasting period. Animals were weighed prior to dose administration on the day of dosing for calculating the actual dose volume. The body weights were in the range from 212 g to 223 g for males. All animals received test article by single intravenous bolus administration at 0.5 mg/kg. Approximately 0.2 mL blood was collected at each time point via jugular vein from each study animal. […] All blood samples were transferred into pre-labeled plastic micro centrifuge tubes and mixed with the pre-loaded anti-coagulant K2EDTA (5 μL, 0.5 M). Plasma samples were then prepared by centrifuging the blood samples. All plasma samples were then quickly frozen over dry ice and kept at −60° C. or lower until LC/MS/MS analysis. The concentrations of test article in plasma were determined by using a quantitative bioanalytical LC/MS/MS method. The lower limit of quantitation (LLOQ) for test article in plasma was 1 ng/mL, and the upper limit of quantitation (ULOQ) in plasma was 3000 ng/mL. The plasma concentration of test article in rats was subjected to a non compartmental pharmacokinetic analysis by using the Phoenix WinNonlin software (version 6.3, Pharsight, Mountain View, CA).
(§2) The linear/log trapezoidal rule was applied in obtaining the PK parameters.

human Nav1.6 (hNav1.6) = human Nav1.6 (hNav1.6) (Homo sapiens (Human), UniProt Q9UQD0); experiment: Inhibition of late sodium current (INaL) at hNav1.6, PatchXpress electrophysiology; type: cell-based; conditions: 1 μM compound; HEK-293 cells expressing recombinant hNav1.6; late current evoked by 300 nM ATX-II
Method: Functional characterization of exemplary compounds to modulate INaL expressed by the Nav1.6 voltage-gated sodium channel was accomplished using the PatchXpress™ high throughput electrophysiology platform (Molecular Devices, Sunnyvale, CA). HEK-293 cells expressing recombinant, human Nav1.6 (hNav1.6)were grown in DMEM/high-glucose Dulbecco's modified, 10% FBS, 2 mM sodium pyruvate, 10 mM HEPES and 400 μg/mL G418. Cells were grown to 50%-80% confluency prior to harvesting. […] The onboard liquid handling facility of the PatchXpress was used for dispensing cells and applying test compounds. Nav late currents were evoked by the application of 300 nM ATX-II. […] INaL amplitude and stability were determined by analyzing the mean current amplitude over the final 20 ms of the test pulse. […] Percent steady-state inhibition of INaL was calculated as: [(INaL_compound)/(INaL_control)]*100, where INaL_compound and INaL_control represent INaL recorded in the presence or absence of compound, respectively.

[2] = rat, in vivo, iv, 0.5 mg/kg
Method: as §1, §2

[3] = pooled human liver microsomes, substrate Phenacetin, read-out: CYP1A2 IC50 mean

Sequence of CYP1A2 (P05177 whole entry): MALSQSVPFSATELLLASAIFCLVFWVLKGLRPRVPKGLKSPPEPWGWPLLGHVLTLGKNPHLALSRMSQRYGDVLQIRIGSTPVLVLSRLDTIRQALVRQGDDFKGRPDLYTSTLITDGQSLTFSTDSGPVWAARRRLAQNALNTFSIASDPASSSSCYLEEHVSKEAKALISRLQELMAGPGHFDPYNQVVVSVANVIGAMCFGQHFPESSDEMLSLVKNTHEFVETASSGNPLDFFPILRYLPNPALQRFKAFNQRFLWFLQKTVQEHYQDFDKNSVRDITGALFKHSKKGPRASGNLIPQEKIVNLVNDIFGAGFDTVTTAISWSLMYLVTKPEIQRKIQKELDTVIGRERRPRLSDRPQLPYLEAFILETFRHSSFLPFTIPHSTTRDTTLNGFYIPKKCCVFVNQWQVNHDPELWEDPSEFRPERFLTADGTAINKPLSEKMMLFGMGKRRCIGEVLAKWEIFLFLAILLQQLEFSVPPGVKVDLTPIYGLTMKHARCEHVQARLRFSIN
Sequence of human Nav1.6 (hNav1.6) (Q9UQD0 whole entry): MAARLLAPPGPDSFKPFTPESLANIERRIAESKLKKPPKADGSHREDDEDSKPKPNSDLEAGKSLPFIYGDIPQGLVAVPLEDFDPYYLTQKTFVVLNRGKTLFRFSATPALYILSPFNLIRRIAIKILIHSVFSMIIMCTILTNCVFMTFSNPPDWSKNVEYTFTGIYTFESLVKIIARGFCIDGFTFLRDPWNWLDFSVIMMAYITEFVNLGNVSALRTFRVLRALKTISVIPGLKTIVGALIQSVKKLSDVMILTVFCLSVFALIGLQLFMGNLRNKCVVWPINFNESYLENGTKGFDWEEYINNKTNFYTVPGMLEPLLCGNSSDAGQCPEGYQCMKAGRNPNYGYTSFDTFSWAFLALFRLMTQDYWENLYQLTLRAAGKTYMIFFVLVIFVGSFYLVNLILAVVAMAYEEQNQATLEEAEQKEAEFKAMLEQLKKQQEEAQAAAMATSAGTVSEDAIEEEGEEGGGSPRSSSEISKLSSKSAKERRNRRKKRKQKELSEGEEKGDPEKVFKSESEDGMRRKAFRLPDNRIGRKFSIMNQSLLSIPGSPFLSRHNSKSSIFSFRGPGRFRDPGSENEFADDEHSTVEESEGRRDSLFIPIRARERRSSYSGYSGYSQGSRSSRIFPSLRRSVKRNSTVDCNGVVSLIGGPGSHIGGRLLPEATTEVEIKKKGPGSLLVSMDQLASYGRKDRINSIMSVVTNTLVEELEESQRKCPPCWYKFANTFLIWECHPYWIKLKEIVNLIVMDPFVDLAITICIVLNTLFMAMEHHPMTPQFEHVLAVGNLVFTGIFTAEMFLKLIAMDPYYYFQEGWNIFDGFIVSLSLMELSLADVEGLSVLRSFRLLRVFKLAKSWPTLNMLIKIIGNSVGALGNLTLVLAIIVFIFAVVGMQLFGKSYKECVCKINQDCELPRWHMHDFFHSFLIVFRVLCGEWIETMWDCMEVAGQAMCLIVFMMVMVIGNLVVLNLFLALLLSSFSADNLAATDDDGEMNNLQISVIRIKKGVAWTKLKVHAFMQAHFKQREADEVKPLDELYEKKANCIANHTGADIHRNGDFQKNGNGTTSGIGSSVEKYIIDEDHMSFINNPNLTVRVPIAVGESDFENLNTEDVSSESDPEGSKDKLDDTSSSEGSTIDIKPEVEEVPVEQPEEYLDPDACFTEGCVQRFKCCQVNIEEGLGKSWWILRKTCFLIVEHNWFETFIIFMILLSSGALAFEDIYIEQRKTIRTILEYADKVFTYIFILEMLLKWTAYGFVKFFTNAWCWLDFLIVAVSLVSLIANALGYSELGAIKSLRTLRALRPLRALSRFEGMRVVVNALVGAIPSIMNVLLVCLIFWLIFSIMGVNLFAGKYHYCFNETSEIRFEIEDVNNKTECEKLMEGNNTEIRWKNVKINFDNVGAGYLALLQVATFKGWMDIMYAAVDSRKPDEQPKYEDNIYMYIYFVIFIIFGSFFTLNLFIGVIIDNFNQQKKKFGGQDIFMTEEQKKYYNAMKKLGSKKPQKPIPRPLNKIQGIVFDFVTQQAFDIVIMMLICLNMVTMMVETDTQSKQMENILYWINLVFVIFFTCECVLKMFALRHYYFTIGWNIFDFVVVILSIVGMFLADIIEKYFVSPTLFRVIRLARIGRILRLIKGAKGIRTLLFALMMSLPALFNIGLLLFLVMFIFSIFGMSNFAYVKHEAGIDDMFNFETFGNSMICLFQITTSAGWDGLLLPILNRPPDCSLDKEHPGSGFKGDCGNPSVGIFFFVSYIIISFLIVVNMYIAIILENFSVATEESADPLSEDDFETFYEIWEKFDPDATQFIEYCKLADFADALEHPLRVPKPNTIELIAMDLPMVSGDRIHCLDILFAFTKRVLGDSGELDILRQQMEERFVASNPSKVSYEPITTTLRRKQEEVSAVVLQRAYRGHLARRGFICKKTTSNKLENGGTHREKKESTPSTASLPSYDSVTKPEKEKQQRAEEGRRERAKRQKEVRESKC

## FC(F)Oc1ccc(-c2ccc3nnc(C(F)(F)F)n3n2)cc1 [Compound 116]
CYP1A2; microsomes
  IC50: < 1000 nM

## Fc1cc(-c2cn3c(C(F)(F)F)nnc3cn2)cnc1OC1CC(F)(F)C1 [Compound 84]
CYP1A2; [3]
  IC50: 1000 to 15000 nM
[1]
  Clearance: 21.9 mL/min/kg
  T1/2: 2.1 h
Human Nav1.6 (hNav1.6)
  INaL v1.6 (1 μM, % Inhibition): C (inhibition of greater than 70%)

## COC(F)(F)c1nnc2cnc(-c3ccc(OC(F)(F)F)cc3)cn12 [Compound 97]
CYP1A2; microsomes
  IC50: < 1000 nM

## Fc1cc(-c2cn3c(C(F)F)nnc3cn2)cnc1OCC(F)(F)F [Compound 68]
CYP1A2; [3]
  IC50: > 30000 nM
[1]
  Clearance: 15.8 mL/min/kg
  T1/2: 1.5 h
Human Nav1.6 (hNav1.6)
  INaL v1.6 (1 μM, % Inhibition): B (inhibition of between about 30% to about 70%)

## FC(F)(F)Oc1ccc(-c2cn3c(C(F)(F)F)nnc3cn2)cc1 [Compound 56]
CYP1A2; [3]
  IC50: < 1000 nM

## Fc1cc(-c2cn3c(C(F)(F)F)nnc3cn2)ccc1OC(F)(F)F [Compound 79]
CYP1A2; microsomes
  IC50: < 1000 nM

## FC(F)(F)OCc1ccc(-c2ccc3nnc(C(F)(F)F)n3n2)cc1 [Compound 118]
CYP1A2; microsomes
  IC50: < 1000 nM

## C[C@@H](Oc1ncc(-c2cn3c(C(F)F)nnc3cn2)cc1F)C(F)(F)F [Compound 134]
CYP1A2; microsomes
  IC50: > 30000 nM
[2]
  Clearance: 10.9 mL/min/kg
  T1/2: 2.6 h
Human Nav1.6 (hNav1.6)
  INaL v1.6 (1 μM, % Inhibition): C (inhibition of greater than 70%)

## FC(F)c1nnc2cnc(-c3ccc(OC(F)(F)F)cc3)cn12 [Compound 47]
CYP1A2; microsomes
  IC50: < 1000 nM

## Cc1cc(-c2ccc3nnc(C(F)(F)F)n3n2)ccc1C(F)(F)F [Compound 98]
CYP1A2; microsomes
  IC50: < 1000 nM

## FC(F)(F)Oc1ccc(-c2ccc3nnc(C4CC4(F)F)n3n2)cc1 (stereo not drawn) [Compound 46]
CYP1A2; [3]
  IC50: 1000 to 15000 nM
[1]
  Clearance: 4.7 mL/min/kg
  T1/2: 4.5 h
Human Nav1.6 (hNav1.6)
  INaL v1.6 (1 μM, % Inhibition): C (inhibition of greater than 70%)

## COCc1cc(OC(F)(F)F)ccc1-c1cn2c(C(F)(F)F)nnc2cn1 [Compound 66]
CYP1A2; microsomes
  IC50: 1000 to 15000 nM
Human Nav1.6 (hNav1.6)
  INaL v1.6 (1 μM, % Inhibition): C (inhibition of greater than 70%)

## FC(F)(F)c1ccc(-c2cn3c(C(F)(F)F)nnc3cn2)cc1 [Compound 62]
CYP1A2; microsomes
  IC50: < 1000 nM

## Fc1cc(C(F)(F)F)ccc1-c1cn2c(C(F)(F)F)nnc2cn1 [Compound 76]
CYP1A2; microsomes
  IC50: < 1000 nM

## COc1cc(OC(F)(F)F)ccc1-c1cn2c(C(F)(F)F)nnc2cn1 [Compound 70]
CYP1A2; microsomes
  IC50: < 1000 nM

## FC(F)(F)c1ccc(-c2ccc3nnc(C(F)(F)F)n3n2)cc1 [Compound 1]
CYP1A2; microsomes
  IC50: < 1000 nM

## COc1cc(OC(F)(F)F)ccc1-c1cn2c(C(F)F)nnc2cn1 [Compound 48]
CYP1A2; microsomes
  IC50: < 1000 nM
